Data as given in patent US12655116B2, “Substituted isophthalic acid diamides” (Bayer Aktiengesellschaft, priority 2020, dated 2026).

Key:
MATIN [1] = assay: Pre-emergence herbicidal action against MATIN; format: in vivo, Matricaria inodora; conditions: Tripleurospermum inodorum, 504 h; for pest or weed control at 20 g/ha: dosage 20 g/ha; for pest or weed control at 80 g/ha: dosage 80 g/ha
How it was run: (§1)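 Greenhouse pots of sandy loam held seeds covered with soil, onto which the compound was applied before emergence. An aqueous suspension or emulsion of WP or EC was used at 600 to 800 l/ha with 0.2% wetting agent. Percent damage was judged visually at 3 weeks.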

ECHCG [2] = assay: Post-emergence herbicidal action against ECHCG; format: in vivo, Echinochloa crus-galli; conditions: Echinochloa crus-galli, 504 h; for pest or weed control at 20 g/ha: dosage 20 g/ha
How it was run: (§2)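 A WP or EC formulation diluted in water with 0.2% wetting agent was sprayed at 600 to 800 l/ha onto one-leaf-stage plants grown in sandy loam. About 3 weeks later, action was rated visually in percent, 100% being dead plants.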

ALOMY [3] = assay: Pre-emergence herbicidal action against ALOMY; format: in vivo, Alopecurus myosuroides; conditions: Alopecurus myosuroides, 504 h, pre-emergence; for pest or weed control at 80 g/ha: scored visually after 3 weeks vs untreated controls (100% = plants have died, 0% = like control plants)
How it was run: as §1

POLCO [4] = assay: Pre-emergence herbicidal action against POLCO; format: in vivo, Polygonum convolvulus; conditions: Fallopia convolvulus, 504 h, dosage 80 g/ha
How it was run: as §1

VERPE [5] = assay: Post-emergence herbicidal action against VERPE; format: in vivo, Veronica persica; conditions: Veronica persica, 504 h
How it was run: as §2

MATIN [6] = assay: Post-emergence herbicidal action against MATIN; format: in vivo, Matricaria inodora; conditions: Tripleurospermum inodorum, 504 h; for pest or weed control at 20 g/ha: dosage 20 g/ha
How it was run: as §2

SETVI [7] = assay: Post-emergence herbicidal action against SETVI; format: in vivo, Setaria viridis; conditions: Setaria viridis, 504 h; for pest or weed control at 5 g/ha: dosage 5 g/ha; for pest or weed control at 20 g/ha: dosage 20 g/ha
How it was run: as §2

PHBPU [8] = assay: Pre-emergence herbicidal action against PHBPU; format: in vivo, Pharbitis purpurea; conditions: Ipomoea purpurea, 504 h; for pest or weed control at 80 g/ha: dosage 80 g/ha
How it was run: as §1

VERPE [9] = assay: Pre-emergence herbicidal action against VERPE; format: in vivo, Veronica persica; conditions: Veronica persica, 504 h; for pest or weed control at 80 g/ha: dosage 80 g/ha
How it was run: as §1

PHBPU [10] = assay: Post-emergence herbicidal action against PHBPU; format: in vivo, Pharbitis purpurea; conditions: Ipomoea purpurea, 504 h, dosage 20 g/ha
How it was run: as §2

AVEFA = assay: Pre-emergence herbicidal action against AVEFA; format: in vivo, Avena fatua; conditions: Avena fatua, 504 h, pre-emergence
How it was run: as §1

VIOTR [11] = assay: Post-emergence herbicidal action against VIOTR; format: in vivo, Viola tricolor; conditions: Viola tricolor, 504 h
How it was run: as §2

ABUTH [12] = assay: Pre-emergence herbicidal action against ABUTH; format: in vivo, Abutilon theophrasti; conditions: Abutilon theophrasti, 504 h; for pest or weed control at 80 g/ha: scored visually after 3 weeks vs untreated controls (100% = plants have died, 0% = like control plants); for pest or weed control at 20 g/ha: dosage 20 g/ha, scored visually after 3 weeks vs untreated controls, 100% = plants have died, 0% = like control plants, read-out: Pre-emergence action against ABUTH (herbicidal activity in percent)
How it was run: as §1

AMARE [13] = assay: Post-emergence herbicidal action against AMARE; format: in vivo, Amaranthus retroflexus; conditions: Amaranthus retroflexus, 504 h, 20 g/ha, visual assessment about 3 weeks after treatment, 100% = plants have died, 0% = like control plants
How it was run: as §2

ECHCG [14] = assay: Pre-emergence herbicidal action against ECHCG; format: in vivo, Echinochloa crus-galli; conditions: Echinochloa crus-galli, 504 h
How it was run: as §1

POLCO [15] = assay: Post-emergence herbicidal action against POLCO; format: in vivo, Polygonum convolvulus; conditions: Fallopia convolvulus, 504 h, dosage 20 g/ha
How it was run: as §2

SETVI [16] = assay: Pre-emergence herbicidal action against SETVI; format: in vivo, Setaria viridis; conditions: Setaria viridis, 504 h; for pest or weed control at 20 g/ha: dosage 20 g/ha; for pest or weed control at 80 g/ha: dosage 80 g/ha
How it was run: as §1

ALOMY [17] = assay: Post-emergence herbicidal action against ALOMY; format: in vivo, Alopecurus myosuroides; conditions: Alopecurus myosuroides, 504 h, dosage 20 g/ha, visual assessment about 3 weeks after treatment vs untreated controls
How it was run: as §2

AMARE [18] = assay: Pre-emergence herbicidal action against AMARE; format: in vivo, Amaranthus retroflexus; conditions: Amaranthus retroflexus, 504 h, scored visually after 3 weeks vs untreated controls, 100% = plants have died, 0% = like control plants
How it was run: as §1

ABUTH [19] = assay: Post-emergence herbicidal action against ABUTH; format: in vivo, Abutilon theophrasti; conditions: Abutilon theophrasti, 504 h, visual assessment about 3 weeks after treatment vs untreated controls; for pest or weed control at 5 g/ha: dosage 5 g/ha; for pest or weed control at 20 g/ha: dosage 20 g/ha
How it was run: as §2

DIGSA [20] = assay: Pre-emergence herbicidal action against DIGSA; format: in vivo, Digitaria sanguinalis; conditions: Digitaria sanguinalis, 504 h; for pest or weed control at 20 g/ha: dosage 20 g/ha; for pest or weed control at 80 g/ha: dosage 80 g/ha
How it was run: as §1

DIGSA [21] = assay: Post-emergence herbicidal action against DIGSA; format: in vivo, Digitaria sanguinalis; conditions: Digitaria sanguinalis, 504 h
How it was run: as §2

VIOTR [22] = assay: Pre-emergence herbicidal action against VIOTR; format: in vivo, Viola tricolor; conditions: Viola tricolor, 504 h; for pest or weed control at 20 g/ha: dosage 20 g/ha; for pest or weed control at 80 g/ha: dosage 80 g/ha
How it was run: as §1

[23] = 20 g/ha, scored visually after 3 weeks, 100% = plants have died, 0% = like control plants

Compound	pest or weed control at 20 g/ha (MATIN [1])	pest or weed control at 80 g/ha (MATIN [1])	pest or weed control at 20 g/ha (ECHCG [2])	pest or weed control at 80 g/ha (ALOMY [3])	pest or weed control at 80 g/ha (POLCO [4])	pest or weed control at 20 g/ha (VERPE [5])	pest or weed control at 20 g/ha (MATIN [6])	pest or weed control at 5 g/ha (SETVI [7])	pest or weed control at 20 g/ha (SETVI [7])	pest or weed control at 80 g/ha (PHBPU [8])	pest or weed control at 80 g/ha (VERPE [9])	pest or weed control at 80 g/ha (AVEFA)	pest or weed control at 5 g/ha (VIOTR [11])	pest or weed control at 20 g/ha (VIOTR [11])	pest or weed control at 80 g/ha (ABUTH [12])	pest or weed control at 20 g/ha (ABUTH [12])	pest or weed control at 20 g/ha (AMARE [13])	pest or weed control at 80 g/ha (ECHCG [14])	pest or weed control at 20 g/ha (POLCO [15])	pest or weed control at 20 g/ha (SETVI [16])	further results
CNC(=O)c1c(C(F)(F)F)ccc(C(=O)Nc2nnnn2C)c1Br [Example 1-207]	90%	100%	80%	100%	90%	90%	90%	100%	100%	80%	100%	90%	100%	100%	100%	100%	100%	90%	100%	100%	pest or weed control at 20 g/ha (PHBPU [10]): 80%; pest or weed control at 20 g/ha (AVEFA; [23]): 80%; pest or weed control at 80 g/ha (SETVI [16]): 100%; pest or weed control at 20 g/ha (ALOMY [17]): 90%; pest or weed control at 20 g/ha (AMARE [18]): 100%; pest or weed control at 80 g/ha (AMARE [18]): 100%; pest or weed control at 5 g/ha (ABUTH [19]): 80%; pest or weed control at 20 g/ha (ABUTH [19]): 90%; pest or weed control at 20 g/ha (DIGSA [20]): 100%; pest or weed control at 80 g/ha (DIGSA [20]): 100%; pest or weed control at 5 g/ha (DIGSA [21]): 90%; pest or weed control at 20 g/ha (DIGSA [21]): 100%; pest or weed control at 20 g/ha (VIOTR [22]): 100%; pest or weed control at 80 g/ha (VIOTR [22]): 100%
CCNC(=O)c1c(C(F)(F)F)ccc(C(=O)Nc2nnnn2CC)c1C1CC1 [Example 2-287]	100%	100%	80%	90%	80%	100%	90%	80%	90%	80%	100%	80%	80%	90%	100%	100%	100%	100%	100%	90%	pest or weed control at 5 g/ha (ECHCG [2]; dosage 5 g/ha): 80%; pest or weed control at 20 g/ha (ALOMY [3]; [23]): 80%; pest or weed control at 5 g/ha (VERPE [5]; 5 g/ha): 80%; pest or weed control at 5 g/ha (MATIN [6]; dosage 5 g/ha): 90%; pest or weed control at 20 g/ha (PHBPU [8]; dosage 20 g/ha): 80%; pest or weed control at 20 g/ha (VERPE [9]; dosage 20 g/ha): 90%; pest or weed control at 20 g/ha (ECHCG [14]; 20 g/ha): 90%; pest or weed control at 80 g/ha (SETVI [16]): 100%; pest or weed control at 20 g/ha (ALOMY [17]): 90%; pest or weed control at 20 g/ha (AMARE [18]): 100%; pest or weed control at 80 g/ha (AMARE [18]): 100%; pest or weed control at 5 g/ha (ABUTH [19]): 80%; pest or weed control at 20 g/ha (ABUTH [19]): 80%; pest or weed control at 20 g/ha (DIGSA [20]): 100%; pest or weed control at 80 g/ha (DIGSA [20]): 100%; pest or weed control at 5 g/ha (DIGSA [21]): 90%; pest or weed control at 20 g/ha (DIGSA [21]): 90%; pest or weed control at 20 g/ha (VIOTR [22]): 100%; pest or weed control at 80 g/ha (VIOTR [22]): 100%
